Results on one molecule are retold here after US8097733B2, “Pyrazole derivatives as 5-LO-inhibitors” (Pfizer Inc., priority 2007, dated 2012).

The nature of this data set: Emesis evaluation in beagle dogs, IV infusion. Particulars: 8-12 kg beagle dogs, loading dose followed by slow infusion. The format is in vivo. On the procedure: The occurrence of these gastrointestinal symptoms after administration of these compounds limited their clinical utility. Experiments are undertaken to differentiate local gastrointestinal emetic stimuli during dissolution and absorption of an oral compound from emetic stimuli produced during systemic exposure through the bloodstream. […] These findings are observed after 8-12 kg purpose-bred beagle dogs are administered 4-(3-{[4-(1-methyl-1H-pyrazol-5-yl)phenyl]thio}phenyl)tetrahydro-2H-pyran-4-carboxamide by IV infusion, using a loading dose followed by a slow infusion to attain a peak blood level over 30 minutes to 1 hour in duration. More specifically, compounds are diluted in phosphate buffered saline to a concentration where 10 ml/kg total volume was administered through an intravenous catheter using an infusion pump, with approximately 90% of the total dose being delivered in the first 5 minutes, and the remaining dose administered over the next 25 minutes. Similar delivery methods to produce an exposure that approximates the systemic pharmacokinetic profile seen with oral delivery are anticipated to give similar results. […] For compounds of the invention, emesis, can for example be evaluated by administering the named compound orally at doses of 10 mg per kg, 100 mg per kg fasted, and 100 mg per kg fed, and evaluating emesis in dogs. […]

Regarding `Cn1nccc1-c1ccc(Sc2cccc(C3(C(N)=O)CCOCC3)c2)cc1` [4-(3-{[4-(1-methyl-1H-pyrazol-5-yl)phenyl]thio}phenyl)tetrahydro-2H-pyran-4-carboxamide], the nausea and emesis result was “produce nausea and emesis through systemic exposure”.
